Measurements from ChEMBL document CHEMBL1201862, “PubChem BioAssay data set” (2004).
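1) Cells in 96-well plates. 2) Compound, 48 h, 5 concentrations. 3) Linear interpolation between surrounding doses. 4) Unreached endpoint = highest concentration. GI50: concentration for 50% inhibition of growth.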 Active and inactive are the calls of the source. No stated cut-off is given here; in the data, active = GI50 up to about 1.1 µM and inactive = higher.

Key:
Assay in all cases: NCI anticancer screen, dose series, 48 h
786-0 = test system: 786-0
A498 = test system: A498
A549 = test system: A549
CAKI-1 = test system: CAKI-1
CCRF-CEM = test system: CCRF-CEM
COLO 205 = test system: COLO 205
DU-145 = test system: DU-145
EKVX = test system: EKVX
HCC 2998 = test system: HCC 2998
HCT-116 = test system: HCT-116
HCT-15 = test system: HCT-15
HOP-62 = test system: HOP-62
HOP-92 = test system: HOP-92
HT-29 = test system: HT-29
IGROV-1 = test system: IGROV-1
K562 = test system: K562
KM12 = test system: KM12
LOX IMVI = test system: LOX IMVI
M14 = test system: M14
MCF7 = test system: MCF7
MDA-MB-231 = test system: MDA-MB-231
MDA-MB-435 = test system: MDA-MB-435
MDA-N = test system: MDA-N
MOLT-4 = test system: MOLT-4
Malme-3M = test system: Malme-3M
NCI-H226 = test system: NCI-H226
NCI-H23 = test system: NCI-H23
NCI/ADR-RES = test system: NCI/ADR-RES
OVCAR-3 = test system: OVCAR-3
OVCAR-4 = test system: OVCAR-4
OVCAR-5 = test system: OVCAR-5
OVCAR-8 = test system: OVCAR-8
PC-3 = test system: PC-3
RPMI-8226 = test system: RPMI-8226
RXF 393 = test system: RXF 393
SF-268 = test system: SF-268
SF-295 = test system: SF-295
SF-539 = test system: SF-539
SK-MEL-28 = test system: SK-MEL-28
SK-MEL-2 = test system: SK-MEL-2
SK-MEL-5 = test system: SK-MEL-5
SK-OV-3 = test system: SK-OV-3
SN12C = test system: SN12C
SNB-75 = test system: SNB-75
SR = test system: SR
SW-620 = test system: SW-620
T47D = test system: T47D
TK-10 = test system: TK-10
U-251 = test system: U-251
UACC-257 = test system: UACC-257
UACC-62 = test system: UACC-62
ACHN = test system: ACHN
BT-549 = test system: BT-549
HL-60 = test system: HL-60
Hs-578T = test system: Hs-578T
NCI-H460 = test system: NCI-H460
NCI-H522 = test system: NCI-H522
SNB-19 = test system: SNB-19
UO-31 = test system: UO-31

O=C1C2=Cc3ccccc3OC2(O)Oc2ccccc21 (configuration not stated)
GI50 (786-0): > 100 µM (inactive)
GI50 (A498): > 100 µM (inactive)
GI50 (A549): > 100 µM (inactive)
GI50 (CAKI-1): > 100 µM (inactive)
GI50 (CCRF-CEM): > 100 µM (inactive)
GI50 (COLO 205): > 100 µM (inactive)
GI50 (DU-145): > 100 µM (inactive)
GI50 (EKVX): > 100 µM (inactive)
GI50 (HCC 2998): > 100 µM (inactive)
GI50 (HCT-116): > 100 µM (inactive)
GI50 (HCT-15): > 100 µM
GI50 (HOP-62): > 100 µM (inactive)
GI50 (HOP-92): > 100 µM (inactive)
GI50 (HT-29): > 100 µM (inactive)
GI50 (IGROV-1): > 100 µM (inactive)
GI50 (K562): 57.8 µM (inactive)
GI50 (KM12): > 100 µM (inactive)
GI50 (LOX IMVI): > 100 µM (inactive)
GI50 (M14): > 100 µM (inactive)
GI50 (MCF7): > 100 µM (inactive)
GI50 (MDA-MB-231): > 100 µM (inactive)
GI50 (MDA-MB-435): > 100 µM (inactive)
GI50 (MDA-N): > 100 µM (inactive)
GI50 (MOLT-4): > 100 µM (inactive)
GI50 (Malme-3M): > 100 µM (inactive)
GI50 (NCI-H226): > 100 µM (inactive)
GI50 (NCI-H23): > 100 µM (inactive)
GI50 (NCI/ADR-RES): > 100 µM (inactive)
GI50 (OVCAR-3): 91.2 µM (inactive)
GI50 (OVCAR-4): > 100 µM (inactive)
GI50 (OVCAR-5): > 100 µM (inactive)
GI50 (OVCAR-8): > 100 µM (inactive)
GI50 (PC-3): > 100 µM (inactive)
GI50 (RPMI-8226): > 100 µM (inactive)
GI50 (RXF 393): > 100 µM (inactive)
GI50 (SF-268): > 100 µM (inactive)
GI50 (SF-295): > 100 µM (inactive)
GI50 (SF-539): > 100 µM (inactive)
GI50 (SK-MEL-28): > 100 µM (inactive)
GI50 (SK-MEL-2): > 100 µM (inactive)
GI50 (SK-MEL-5): > 100 µM (inactive)
GI50 (SK-OV-3): > 100 µM (inactive)
GI50 (SN12C): > 100 µM (inactive)
GI50 (SNB-75): 52.2 µM (inactive)
GI50 (SR): > 100 µM (inactive)
GI50 (SW-620): > 100 µM (inactive)
GI50 (T47D): > 100 µM (inactive)
GI50 (TK-10): > 100 µM (inactive)
GI50 (U-251): > 100 µM (inactive)
GI50 (UACC-257): > 100 µM (inactive)
GI50 (UACC-62): > 100 µM (inactive)

O=CC1C(Cl)=Nc2nc3ccccc3n2C1c1ccc([N+](=O)[O-])cc1 (configuration not stated)
GI50 (786-0): 4.3 µM (inactive)
GI50 (A498): 24.7 µM (inactive)
GI50 (A549): 25.2 µM (inactive)
GI50 (ACHN): 2.43 µM (inactive)
GI50 (BT-549): < 0.01 µM (active)
GI50 (CAKI-1): 3.09 µM (inactive)
GI50 (CCRF-CEM): 3.11 µM (inactive)
GI50 (COLO 205): 3.14 µM (inactive)
GI50 (DU-145): 4.74 µM (inactive)
GI50 (EKVX): 24.1 µM (inactive)
GI50 (HCC 2998): 14 µM (inactive)
GI50 (HCT-116): 3.73 µM (inactive)
GI50 (HCT-15): 2.93 µM
GI50 (HL-60): 3.28 µM (inactive)
GI50 (HOP-62): 8.28 µM (inactive)
GI50 (HOP-92): 5.45 µM (inactive)
GI50 (Hs-578T): 57.7 µM (inactive)
GI50 (IGROV-1): 12.3 µM (inactive)
GI50 (K562): 1.8 µM (inactive)
GI50 (KM12): 24.8 µM (inactive)
GI50 (LOX IMVI): 2.18 µM (inactive)
GI50 (M14): 7.93 µM (inactive)
GI50 (MCF7): 3.97 µM (inactive)
GI50 (MDA-MB-231): 14.9 µM (inactive)
GI50 (MDA-MB-435): 4.81 µM (inactive)
GI50 (MOLT-4): 1.71 µM (inactive)
GI50 (Malme-3M): 8.13 µM (inactive)
GI50 (NCI-H226): 3.33 µM (inactive)
GI50 (NCI-H23): 7.96 µM (inactive)
GI50 (NCI-H460): 31.1 µM (inactive)
GI50 (NCI-H522): 3.71 µM (inactive)
GI50 (NCI/ADR-RES): 40.5 µM (inactive)
GI50 (OVCAR-3): 3.85 µM (inactive)
GI50 (OVCAR-4): 13.6 µM (inactive)
GI50 (OVCAR-5): 21.1 µM (inactive)
GI50 (OVCAR-8): 3.95 µM (inactive)
GI50 (PC-3): 4.89 µM (inactive)
GI50 (RPMI-8226): 3.77 µM (inactive)
GI50 (RXF 393): 2.93 µM (inactive)
GI50 (SF-268): 6.84 µM (inactive)
GI50 (SF-295): 23.2 µM (inactive)
GI50 (SF-539): 20.2 µM (inactive)
GI50 (SK-MEL-28): 2.51 µM (inactive)
GI50 (SK-MEL-2): 6.03 µM (inactive)
GI50 (SK-MEL-5): 6.68 µM (inactive)
GI50 (SN12C): 15.4 µM (inactive)
GI50 (SNB-19): 16 µM (inactive)
GI50 (SNB-75): 1.77 µM (inactive)
GI50 (SR): 2.16 µM (inactive)
GI50 (SW-620): 4.8 µM (inactive)
GI50 (T47D): 1.57 µM (inactive)
GI50 (TK-10): 4.54 µM (inactive)
GI50 (U-251): 5.52 µM (inactive)
GI50 (UACC-257): 13.6 µM (inactive)
GI50 (UACC-62): 16.3 µM (inactive)
GI50 (UO-31): 3.88 µM (inactive)
